From PMC3827032, “Functional Analysis of Hsp70 Inhibitors” (PLoS ONE, 2013)

Legend:
[1] = molecular target: T1, Hsp70 (Homo sapiens, UniProt P0DMV8); experiment: crystal structure of NBD ([…] Å), ITC ([…]), SPR ([…]), DSC, ATPase inhibition (Ki […]; […] with Hdj1); assay type: binding; design: gene HSPA1A; full-length (ITC, SPR); NBD residues 1–382 (crystal structure)
[2] = molecular target: T1, Hsp70; experiment: ITC ([…]), SPR ([…]), DSC (Tm +[…]°C); assay type: binding; design: gene HSPA1A; full-length, nucleotide-free
[3] = molecular target: T1, Hsp70; design: gene HSPA1A

T1 sequence (P0DMV8 2-641): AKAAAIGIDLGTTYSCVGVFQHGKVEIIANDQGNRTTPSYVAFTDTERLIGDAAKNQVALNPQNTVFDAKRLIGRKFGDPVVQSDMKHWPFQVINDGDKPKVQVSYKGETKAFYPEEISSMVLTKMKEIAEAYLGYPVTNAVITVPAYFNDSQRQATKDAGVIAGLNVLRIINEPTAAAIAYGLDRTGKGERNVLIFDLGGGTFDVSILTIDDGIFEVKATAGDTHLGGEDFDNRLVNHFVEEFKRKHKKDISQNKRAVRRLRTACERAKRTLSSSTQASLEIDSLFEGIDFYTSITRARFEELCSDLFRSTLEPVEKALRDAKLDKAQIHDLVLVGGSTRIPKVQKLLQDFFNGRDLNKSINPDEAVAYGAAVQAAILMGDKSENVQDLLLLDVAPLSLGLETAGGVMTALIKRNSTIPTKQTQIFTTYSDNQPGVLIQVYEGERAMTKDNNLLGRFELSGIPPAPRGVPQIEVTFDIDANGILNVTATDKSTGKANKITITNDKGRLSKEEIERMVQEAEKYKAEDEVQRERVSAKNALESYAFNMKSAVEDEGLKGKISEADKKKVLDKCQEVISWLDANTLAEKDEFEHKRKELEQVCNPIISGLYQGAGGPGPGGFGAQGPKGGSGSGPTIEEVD

With N#Cc1ccc(COC[C@H]2O[C@@H](n3c(NCc4ccc(Cl)c(Cl)c4)nc4c(N)ncnc43)[C@H](O)[C@@H]2O)cc1 [VER-155008] as the compound, how does the Kd [1] read?
Its Kd is 228 ± 16 nM.

Nc1ncnc2c1ncn2[C@@H]1O[C@H](COP(=O)(O)OP(=O)(O)O)[C@@H](O)[C@H]1O [ADP] was tested. Which Kd [2] did it give?
Its Kd is 7.7 ± 0.4 nM.

Which Km [3] does the source give for Nc1ncnc2c1ncn2[C@@H]1O[C@H](COP(=O)(O)OP(=O)(O)OP(=O)(O)O)[C@@H](O)[C@H]1O [ATP] here?
Its Km is 9.9 ± 1.3 µM.
